Source: the supplement of paper PMC10307832

Legend:
Assay in all cases: relative viability (nuclei count vs DMSO), 5 days (fraction); higher = more cells survive
LCLC-103H = tested on: LCLC-103H
Method in brief: (§1)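 Nuclei were stained with Hoechst during a one-step fixation (final 0.05% Triton X-100, 1% formaldehyde, 1 ug/ml Hoechst) carried out 5 days after dosing, then counted on 4× images. The cells, lung cancer lines in 1536-well plates, had been dosed by pin tool the day after seeding with one drug alone or a fixed anchor-drug dose plus five library-drug doses (not always all listed) in √10 steps. Relative viability is the nuclei count in treated wells divided by that in vehicle wells, and each value is the median of duplicate plates.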

PC-14 = tested on: PC-14
Method in brief: as §1

NCI-H596 = tested on: NCI-H596
Method in brief: as §1

H3255 = tested on: H3255
Method in brief: as §1

NCI-H727 = tested on: NCI-H727
Method in brief: as §1

LU99A = tested on: LU99A
Method in brief: as §1

NCI-H2228 = tested on: NCI-H2228
Method in brief: as §1

NCI-H23 = tested on: NCI-H23
Method in brief: as §1

LC-2-ad = tested on: LC-2-ad
Method in brief: as §1

NCI-H1563 = tested on: NCI-H1563
Method in brief: as §1

NCI-H1650 = tested on: NCI-H1650
Method in brief: as §1

201T = tested on: 201T
Method in brief: as §1

NCI-H460 = tested on: NCI-H460
Method in brief: as §1

NCI-H2347 = tested on: NCI-H2347
Method in brief: as §1

PC-3 [JPC-3] = tested on: PC-3 [JPC-3]
Method in brief: as §1

A-427 = tested on: A-427
Method in brief: as §1

LCLC-97TM1 = tested on: LCLC-97TM1
Method in brief: as §1

HCC-44 = tested on: HCC-44
Method in brief: as §1

SW 1573 = tested on: SW 1573
Method in brief: as §1

COR-L23 = tested on: COR-L23
Method in brief: as §1

With `COc1nc(C)cnc1NS(=O)(=O)c1cccnc1-c1ccc(-c2nnco2)cc1` [Zibotentan] + CC(C)C[C@H](NC(=O)[C@H](Cc1ccccc1)NC(=O)c1cnccn1)B(O)O [Bortezomib] (partner 0.002 µM) the relative viability (LCLC-103H; first compound 0.08 µM) was 1.02, the relative viability (LCLC-103H; first compound 0.253 µM) was 1 and the relative viability (LCLC-103H; first compound 0.8 µM) was 1.27. It also gave a relative viability (LCLC-103H; first compound 2.53 µM) of 1.04, a relative viability (PC-14; first compound 0.08 µM) of 0.872 and a relative viability (PC-14; first compound 0.253 µM) of 0.922. The relative viability (PC-14; first compound 0.8 µM) was 0.897, the relative viability (PC-14; first compound 2.53 µM) was 0.861 and the relative viability (NCI-H596; first compound 0.08 µM) was 0.966. For the same compound, the relative viability (NCI-H596; first compound 0.253 µM) was 0.935, the relative viability (NCI-H596; first compound 0.8 µM) was 1.06 and the relative viability (NCI-H596; first compound 2.53 µM) was 1.31. For the same compound, the relative viability (H3255; first compound 0.08 µM) was 0.791, the relative viability (H3255; first compound 0.253 µM) was 0.963 and the relative viability (H3255; first compound 0.8 µM) was 0.996. The relative viability (H3255; first compound 2.53 µM) was 0.822, the relative viability (NCI-H727; first compound 0.08 µM) was 0.745 and the relative viability (NCI-H727; first compound 0.253 µM) was 0.768. For the same compound, the relative viability (NCI-H727; first compound 0.8 µM) was 0.966, the relative viability (NCI-H727; first compound 2.53 µM) was 0.805 and the relative viability (LU99A; first compound 0.08 µM) was 1.3. It also gave a relative viability (LU99A; first compound 0.253 µM) of 1.13, a relative viability (LU99A; first compound 0.8 µM) of 1.23 and a relative viability (LU99A; first compound 2.53 µM) of 1.17. It also gave a relative viability (NCI-H2228; first compound 0.08 µM) of 0.801, a relative viability (NCI-H2228; first compound 0.253 µM) of 0.821 and a relative viability (NCI-H2228; first compound 0.8 µM) of 0.97. It also gave a relative viability (NCI-H2228; first compound 2.53 µM) of 1.07, a relative viability (NCI-H23; first compound 0.08 µM) of 1.25 and a relative viability (NCI-H23; first compound 0.253 µM) of 1.1. For the same compound, the relative viability (NCI-H23; first compound 0.8 µM) was 0.999, the relative viability (NCI-H23; first compound 2.53 µM) was 1.29 and the relative viability (LC-2-ad; first compound 0.08 µM) was 1.03. The relative viability (LC-2-ad; first compound 0.253 µM) was 0.932, the relative viability (LC-2-ad; first compound 0.8 µM) was 0.921 and the relative viability (LC-2-ad; first compound 2.53 µM) was 1.07. The relative viability (NCI-H1563; first compound 0.08 µM) was 0.932, the relative viability (NCI-H1563; first compound 0.253 µM) was 0.648 and the relative viability (NCI-H1563; first compound 0.8 µM) was 0.881. The relative viability (NCI-H1563; first compound 2.53 µM) was 0.905, the relative viability (NCI-H1650; first compound 0.08 µM) was 0.209 and the relative viability (NCI-H1650; first compound 0.8 µM) was 0.198. The relative viability (NCI-H1650; first compound 2.53 µM) was 0.194, the relative viability (201T; first compound 0.08 µM) was 1.1 and the relative viability (201T; first compound 0.253 µM) was 1.05. For the same compound, the relative viability (201T; first compound 0.8 µM) was 1.11, the relative viability (201T; first compound 2.53 µM) was 1.11 and the relative viability (NCI-H460; first compound 0.08 µM) was 1.25. The relative viability (NCI-H460; first compound 0.8 µM) was 1.11, the relative viability (NCI-H460; first compound 2.53 µM) was 1.2 and the relative viability (NCI-H2347; first compound 0.08 µM) was 1.08. The relative viability (NCI-H2347; first compound 0.253 µM) was 0.871, the relative viability (NCI-H2347; first compound 0.8 µM) was 1.04 and the relative viability (NCI-H2347; first compound 2.53 µM) was 0.734. It also gave a relative viability (PC-3 [JPC-3]; first compound 0.08 µM) of 0.906, a relative viability (PC-3 [JPC-3]; first compound 0.253 µM) of 0.838 and a relative viability (PC-3 [JPC-3]; first compound 0.8 µM) of 0.839. The relative viability (PC-3 [JPC-3]; first compound 2.53 µM) was 0.807, the relative viability (A-427; first compound 0.08 µM) was 1.05 and the relative viability (A-427; first compound 0.253 µM) was 1.06. It also gave a relative viability (A-427; first compound 0.8 µM) of 1.02, a relative viability (A-427; first compound 2.53 µM) of 1.01 and a relative viability (LCLC-97TM1; first compound 0.08 µM) of 0.631. For the same compound, the relative viability (LCLC-97TM1; first compound 0.8 µM) was 0.657, the relative viability (LCLC-97TM1; first compound 2.53 µM) was 0.688 and the relative viability (HCC-44; first compound 0.08 µM) was 0.909. It also gave a relative viability (HCC-44; first compound 0.253 µM) of 0.894, a relative viability (HCC-44; first compound 0.8 µM) of 0.959 and a relative viability (HCC-44; first compound 2.53 µM) of 0.883. The relative viability (SW 1573; first compound 0.08 µM) was 1, the relative viability (SW 1573; first compound 0.253 µM) was 0.847 and the relative viability (SW 1573; first compound 0.8 µM) was 1.05. For the same compound, the relative viability (SW 1573; first compound 2.53 µM) was 1.28, the relative viability (COR-L23; first compound 0.08 µM) was 0.999 and the relative viability (COR-L23; first compound 0.253 µM) was 0.917. It also gave a relative viability (COR-L23; first compound 0.8 µM) of 0.98 and a relative viability (COR-L23; first compound 2.53 µM) of 1.07.
